This is an account of results in patent publication US20070208040A1, “A2A ADENOSINE RECEPTOR ANTAGONISTS” (priority 2006, published 2007).

pKi: −log10 of the molar value.

The target in the test is A2A adenosine receptor (UniProt P29274). The test is described as follows: A2A radioligand binding assay (displacement of 3H-MSX-2). Also noted: species or system human. The following applies: displacement of 2 nM 3H-MSX-2 from 15 ug A2A membrane, 23° C., 2 hours. An excerpt:
A tritiated adenosine A2A antagonist, 3-(3-hydroxypropyl)-7-methyl-8-(m-methoxystyryl)-1-propargylxanthine, (3H-MSX-2, specific activity: 80 Ci/mmol), was purchased from American Radiolabeled Chemicals, Inc (St. Louis, Mo.). A tritiated adenosine A1 antagonist, 1,3-Dipropyl-8-cyclopentylxanthine ([^3H]DPCPX, specific activity: 120 Ci/mmol) was purchased from Perkin Elmer (Boston, Mass.). A tritiated adenosine A2a antagonist, 4-(2-[7-amino-2-(2-furyl)[1,2,4]triazolo[2,3-a][1,3,5]triazin-5-ylamino]ethyl)phenol ([^3H]ZM241385 specific activity: 27.4 Ci/mmol) was purchased from American Radiolabeled Chemicals, Inc (St. Louis, Mo.). Adenosine Deaminase (ADA) was purchased from Roche Molecular Biochemicals (Nutley, N.J.). GTP was purchased from Sigma. Concentrated stock solution (10 mM) of compounds was dissolved in dimethylsulfoxide (DMSO), stored at −20° C., and diluted in Tris-EDTA buffer (50 mM Tris and 1 mM EDTA, 10 mM MgCl2, pH 7.4) for use in experiments. The final content of dimethylsulfoxide in Tris-EDTA buffer during experiments was not more than 1%. Male Sprague Dawley rats, weighted 250-400 g, 8-10 weeks old, were purchased from Charles River Labs (Wilmington, Mass.).
HEK293 (Human Embryonic Kidney 293) cells stably expressing human A2A adenosine receptor or human A2B adenosine receptor were maintained in DMEM supplemented with 10% fetal bovine serum, 2 mM L-glutamine, 100 IU/ml penicillin, 50 μg/ml streptomycin and 2 μg/ml puromycin. CHO (Chinese Hamster Ovary) cells stably expressing human A1 adenosine receptor or human A3 adenosine receptor were maintained in F12K medium supplemented with 10% fetal bovine serum, 2 mM L-glutamine, 100 IU penicillin, 50 μg streptomycin and 8 μg/ml puromycin. PC12 (rat pheochromocytoma) cells were cultured in F12K medium supplemented with 10% horse serum and 2.5% fetal bovine serum, 2 mM L-glutamine, 100 IU/ml penicillin, and 50 μg/ml streptomycin. All cells were maintained at 37° C. in a humidified 5% CO2/95% air incubator and recultivated 2 times per week.
Cultured cells in 150 mm^2 dishes were washed once with PBS, detached by scrapping, collected with buffer A (10 mM HEPES, 10 mM EDTA, pH 7.4) containing protease inhibitor cocktail. Cells were then homogenized by a handheld homogenizer at a speed of 4.5 for 1 min. The homogenate was centrifuged by a Beckman ultracentrifuge at a speed of 29,000 × g for 15 min. The pellets were resuspended in buffer HE (10 mM HEPES, 1 mM EDTA, pH 7.4, with protease inhibitor cocktail), centrifuged again at 29,000 × g for 15 min. The crude membrane was resuspended using buffer HE, and protein concentration was measured by the method of Lowery with BSA as standard. Similar procedures were used for membrane preparation for fresh rat tissues. All experimental procedures were done at 4° C. Membranes were aliquot and kept at −80° C.
The binding assays utilized 15 ug of A2A membrane (human recombinant A2A membrane, rat striatal membrane, or PC 12 cell membrane) that had been treated with adenosine deaminase and 50 mM Tris-EDTA buffer (pH=7.4) followed by mixing 2 μL of serially diluted DMSO stock solution of the compounds of this invention at concentrations ranging from 10 μM to 0.1 nM or the control received 2 μL of DMSO alone, then the tritiated antagonist 3-(3-hydroxypropyl)-7-methyl-8-(m-methoxystyryl)-1-propargylxanthine (^3H-MSX-2) in Tris-EDTA buffer (50 mM Tris, 1 mM EDTA, 10 mM MgCl2, pH of 7.4) was added to achieve a final concentration of 2 nM. After incubation at 23° C. for 2 hours, the solutions were filtered using a membrane harvester with multiple washing of the membranes (3×). The filter plates were counted in scintillation cocktail affording the amount of displacement ^3H-MSX-2 by the competitive binding compositions of this invention. Radioligand binding data was analyzed using GraphPad Prism version 4.0 (San Diego, Calif.). […]
In general terms: Displacement assays read how much labelled ligand stays bound in the presence of the test substance.
A word on the pKi: it is the negative decadic logarithm of the Ki, by convention in mol/L. Turning to `CCn1c(=O)[nH]c2sc(-c3ccccn3)c(C)c2c1=O` [XXXVIII, 3-ethyl-5-methyl-6-(2-pyridyl)-1,3-dihydrothiopheno[2,3-d]pyrimidine-2,4-dione], the pKi is 6.92.

For the molecule `CCn1c(=O)[nH]c2sc(C)c(C)c2c1=O` [XVI, 3-ethyl-5,6-dimethyl-1,3-dihydrothiopheno[2,3-d]pyrimidine-2,4-dione], the pKi was 6.16.

Molecule `CCn1c(=O)[nH]c2sc(-c3nccs3)c(C)c2c1=O` [XXXVII, 3-ethyl-5-methyl-6-(1,3-thiazol-2-yl)-1,3-dihydrothiopheno[2,3-d]pyrimidine-2,4-dione] showed a pKi of 6.78.

In turn, `CCn1c(=O)c2c(C)c(-c3cc(C)cs3)sc2n(C)c1=O` [XLVII, 3-ethyl-1,5-dimethyl-6-(4-methyl(2-thienyl))-1,3-dihydrothiopheno[2,3-d]pyrimidine-2,4-dione] gave a pKi of 6.28.

Consider `CCn1c(=O)n(CC(C)C)c(=O)c2c(C)c(-c3ccco3)sc21` [XLIV, 1-ethyl-6-(2-furyl)-5-methyl-3-(2-methylpropyl)-1,3-dihydrothiopheno[2,3-d]pyrimidine-2,4-dione], for which the pKi is 6.34. The pKi values of the last two molecules are within 0.2 log units of each other.

As to `Cc1csc2[nH]c(=O)n(C)c(=O)c12` [XIII, 3,5-dimethyl-1,3-dihydrothiopheno[2,3-d]pyrimidine-2,4-dione], the pKi is 6.19. This pKi and that of the molecule before are within 0.2 log units of each other.

For the molecule `CCn1c(=O)c2c(-c3ccc(C)o3)csc2n(C)c1=O` [XXII, 3-ethyl-1-methyl-5-(5-methyl(2-furyl))-1,3-dihydrothiopheno[2,3-d]pyrimidine-2,4-dione], the pKi was 6.05.

The molecule `Cc1c(-c2cccs2)sc2[nH]c(=O)n(CC3CC3)c(=O)c12` [XXXV, 3-(cyclopropylmethyl)-5-methyl-6-(2-thienyl)-1,3-dihydrothiopheno[2,3-d]pyrimidine-2,4-dione] had a pKi of 6.71.

As for `Cc1c(-c2ncco2)sc2c1c(=O)n(CC(C)C)c(=O)n2C` [XL, 1,5-dimethyl-3-(2-methylpropyl)-6-(1,3-oxazol-2-yl)-1,3-dihydrothiopheno[2,3-d]pyrimidine-2,4-dione], the pKi was 6.46.

Turning to `Cc1c(-c2ccco2)sc2[nH]c(=O)n(CC(C)C)c(=O)c12` [Example I, 6-(2-furyl)-5-methyl-3-(2-methylpropyl)-1,3-dihydrothiopheno[2,3-d]pyrimidine-2,4-dione], the pKi is 7.12. This pKi is 0.66 log units higher than that of the molecule before.

In turn, `CCn1c(=O)[nH]c2sc(C3=NCCO3)c(C)c2c1=O` [VII, 3-ethyl-5-methyl-6-(1,3-oxazolin-2-yl)-1,3-dihydrothiopheno[2,3-d]pyrimidine-2,4-dione] showed a pKi of 6.82.

Molecule `C#CCn1c(=O)c2c(C)csc2n(C)c1=O` [LII, 1,5-dimethyl-3-prop-2-ynyl-1,3-dihydrothiopheno[2,3-d]pyrimidine-2,4-dione] gave a pKi of 6.14.

With `CCn1c(=O)[nH]c2sc(-c3cccnc3OC)c(C)c2c1=O` [LV, 3-ethyl-6-(2-methoxy(3-pyridyl))-5-methyl-1,3-dihydrothiopheno[2,3-d]pyrimidine-2,4-dione], the pKi was 6.28.

The molecule `CCOC(=O)c1sc2[nH]c(=O)n(C)c(=O)c2c1C` [XVII, ethyl 3,5-dimethyl-2,4-dioxo-1,3-dihydrothiopheno[2,3-d]pyrimidine-6-carboxylate] had a pKi of 6.15.

In turn, `Cc1c(-c2ccoc2)sc2[nH]c(=O)n(CC(C)C)c(=O)c12` [XXX, 6-(3-furyl)-5-methyl-3-(2-methylpropyl)-1,3-dihydrothiopheno[2,3-d]pyrimidine-2,4-dione] had a pKi of 6.80.

For the molecule `CCCn1c(=O)[nH]c2sc(C3=N[C@@H](C)CO3)c(C)c2c1=O` [XLV, 6-((4S)-4-methyl(1,3-oxazolin-2-yl))-5-methyl-3-propyl-1,3-dihydrothiopheno[2,3-d]pyrimidine-2,4-dione], the pKi was 7.02.

Molecule `C#CCn1c(=O)[nH]c2sc(C(=O)OCC)c(C)c2c1=O` [XXV, ethyl 5-methyl-2,4-dioxo-3-prop-2-ynyl-1,3-dihydrothiopheno[2,3-d]pyrimidine-6-carboxylate] gave a pKi of 6.52. This pKi lies 0.50 log units lower than the previous one.

`CCCn1c(=O)[nH]c2sc(C(=O)O)c(C)c2c1=O` [XLI, 5-methyl-2,4-dioxo-3-propyl-1,3-dihydrothiopheno[2,3-d]pyrimidine-6-carboxylic acid] gave a pKi of 6.24.

Molecule `Cc1csc2[nH]c(=O)n(CC(C)C)c(=O)c12` [XIX, 5-methyl-3-(2-methylpropyl)-1,3-dihydrothiopheno[2,3-d]pyrimidine-2,4-dione] showed a pKi of 6.11.

The molecule `CCn1c(=O)[nH]c2sc(-c3cccs3)c(C)c2c1=O` [III, 3-ethyl-5-methyl-6-(2-thienyl)-1,3-dihydrothiopheno[2,3-d]pyrimidine-2,4-dione] showed a pKi of 7.01.

Take `CCn1c(=O)[nH]c2scc(-c3ccco3)c2c1=O` [VI, 3-ethyl-5-(2-furyl)-1,3-dihydrothiopheno[2,3-d]pyrimidine-2,4-dione]: the pKi was 6.86.

`CCn1c(=O)c2c(C)c(-c3ccccn3)sc2n(C)c1=O` [L, 3-ethyl-1,5-dimethyl-6-(2-pyridyl)-1,3-dihydrothiopheno[2,3-d]pyrimidine-2,4-dione]: the pKi is 6.31. Against the preceding molecule, the pKi is 0.55 log units lower.

`CCn1c(=O)[nH]c2sc(-c3ccc[nH]3)c(C)c2c1=O` [XXVII, 3-ethyl-5-methyl-6-pyrrol-2-yl-1,3-dihydrothiopheno[2,3-d]pyrimidine-2,4-dione] showed a pKi of 6.74.

Regarding `CCn1c(=O)[nH]c2scc(-c3ccc(C)o3)c2c1=O` [XXI, 3-ethyl-5-(5-methyl(2-furyl))-1,3-dihydrothiopheno[2,3-d]pyrimidine-2,4-dione], the pKi is 6.64.

`CCn1c(=O)c2c(C)c(-c3nccs3)sc2n(C)c1=O` [XLVIII, 3-ethyl-1,5-dimethyl-6-(1,3-thiazol-2-yl)-1,3-dihydrothiopheno[2,3-d]pyrimidine-2,4-dione] had a pKi of 6.70.

For `Cc1c(C2=N[C@@H](C)CO2)sc2c1c(=O)n(CC(C)C)c(=O)n2C` [LIII, 6-((4S)-4-methyl(1,3-oxazolin-2-yl))-1,5-dimethyl-3-(2-methylpropyl)-1,3-dihydrothiopheno[2,3-d]pyrimidine-2,4-dione], the pKi is 6.52. The pKi values of the last two molecules are within 0.2 log units of each other.

Turning to `C#CCn1c(=O)c2c(C)c(C(=O)OCC)sc2n(C)c1=O` [XXVI, ethyl 1,5-dimethyl-2,4-dioxo-3-prop-2-ynyl-1,3-dihydrothiopheno[2,3-d]pyrimidine-6-carboxylate], the pKi is 7.31.

As to `Cc1c(C2=NCCO2)sc2[nH]c(=O)n(CC(C)C)c(=O)c12` [XXVIII, 5-methyl-3-(2-methylpropyl)-6-(1,3-oxazolin-2-yl)-1,3-dihydrothiopheno[2,3-d]pyrimidine-2,4-dione], the pKi is 6.86.

`CCn1c(=O)[nH]c2sc(-c3sccc3C)c(C)c2c1=O` [XXXII, 3-ethyl-5-methyl-6-(3-methyl(2-thienyl))-1,3-dihydrothiopheno[2,3-d]pyrimidine-2,4-dione]: the pKi is 6.96.

Regarding `CNC(=O)c1sc2[nH]c(=O)n(C)c(=O)c2c1C` [VIII, (3,5-dimethyl-2,4-dioxo(1,3-dihydrothiopheno[2,3-d]pyrimidin-6-yl))-n-methylcarboxamide], the pKi is 6.56.

In the case of `Cc1c(C2=N[C@@H](C)CO2)sc2[nH]c(=O)n(CC(C)C)c(=O)c12` [LI, 6-((4S)-4-methyl(1,3-oxazolin-2-yl))-5-methyl-3-(2-methylpropyl)-1,3-dihydrothiopheno[2,3-d]pyrimidine-2,4-dione], the pKi is 7.32. This pKi is 0.76 log units higher than that of the molecule before.
